What is called IC50 is the concentration that gives 50% inhibition.

T1 sequence (Q96P20 whole entry): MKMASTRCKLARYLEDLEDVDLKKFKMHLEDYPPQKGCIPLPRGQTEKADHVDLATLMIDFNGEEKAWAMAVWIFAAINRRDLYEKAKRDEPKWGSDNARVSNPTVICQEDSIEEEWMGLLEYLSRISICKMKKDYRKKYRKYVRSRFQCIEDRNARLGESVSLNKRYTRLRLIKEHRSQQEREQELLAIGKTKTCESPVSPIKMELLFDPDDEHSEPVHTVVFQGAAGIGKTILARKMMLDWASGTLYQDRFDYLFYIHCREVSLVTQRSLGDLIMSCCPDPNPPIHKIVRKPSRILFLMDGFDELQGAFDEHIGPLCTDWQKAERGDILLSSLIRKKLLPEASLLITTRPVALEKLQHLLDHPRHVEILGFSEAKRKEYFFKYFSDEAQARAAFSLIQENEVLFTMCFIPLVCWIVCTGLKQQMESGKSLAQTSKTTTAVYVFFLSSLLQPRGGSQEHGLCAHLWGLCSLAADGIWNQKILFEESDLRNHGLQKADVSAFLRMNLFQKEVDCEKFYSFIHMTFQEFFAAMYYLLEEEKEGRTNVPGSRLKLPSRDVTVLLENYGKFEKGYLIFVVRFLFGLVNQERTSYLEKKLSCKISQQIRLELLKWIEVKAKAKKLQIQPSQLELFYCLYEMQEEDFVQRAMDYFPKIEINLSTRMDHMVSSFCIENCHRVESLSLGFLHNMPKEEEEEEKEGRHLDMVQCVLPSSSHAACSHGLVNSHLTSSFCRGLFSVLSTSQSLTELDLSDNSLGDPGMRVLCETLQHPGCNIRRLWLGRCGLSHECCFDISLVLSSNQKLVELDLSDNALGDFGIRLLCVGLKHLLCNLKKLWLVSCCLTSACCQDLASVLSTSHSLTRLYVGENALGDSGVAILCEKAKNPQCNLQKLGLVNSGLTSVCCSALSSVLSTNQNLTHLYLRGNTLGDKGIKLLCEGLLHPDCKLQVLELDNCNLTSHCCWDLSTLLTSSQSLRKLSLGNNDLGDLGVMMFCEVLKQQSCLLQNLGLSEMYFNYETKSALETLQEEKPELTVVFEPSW

This test concerns the target T1, NLRP3 inflammasome (Homo sapiens, UniProt Q96P20).
T1 construct: endogenous in cells; host or cells: THP-1 monocytic cells
In words: IL-1β secretion assay (NLRP3 IC50) in LPS-primed, nigericin-activated THP-1 cells, HTRF. To be noted: monocytic THP-1 cells; LPS 10 ng/mL 3 h priming, then compound + nigericin 10 μM 2 h; relative IC50, 10 concentrations, geometric mean. It counts as cell-based. The method in brief: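 THP-1 cells primed with LPS 10 ng/mL for 3 h at 37° C., then compound (10-point 1:3 dilution, 0.1% DMSO) added with 10 μM nigericin for 2 h. Supernatant IL-1β measured by HTRF; relative IC50 from a 4-parameter logistic fit, reported as geometric mean.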
As for `CCN1CC[C@H]2OCCN(c3ccc(-c4c(C)cc(C)cc4O)nn3)[C@H]2C1` [Example 404, 2-[6-[(4aS,8aR)-6-ethyl-3,4a,5,7,8,8a-hexahydro-2H-pyrido[4,3-b][1,4]oxazin-4-yl]pyridazin-3-yl]-3,5-dimethyl-phenol], the 50% inhibitory concentration (IC50) came out at 0.00075 µM.

On to `Cc1cccc(O)c1-c1ccc(N2CC[C@@H]3CCN(C)C[C@@H]32)nn1` (single isomer, unassigned) [Example 415], for which the half-inhibitory concentration (IC50) was 4.66 µM.

In the case of `Cc1cc(C)c(-c2ccc(N3CCCc4c3ccnc4O)nn2)c(O)c1` [Example 242, 1-[6-(2-hydroxy-4,6-dimethyl-phenyl)pyridazin-3-yl]-3,4-dihydro-2H-1,6-naphthyridin-5-ol], the IC50 amounted to 2.12 µM.

With `CNCC[C@H]1CN(c2ccc(-c3c(C)cc(C(F)(F)F)cc3O)nn2)CCO1` (single isomer, unassigned) [Example 332], the IC50 was 0.396 µM.

Regarding `Cc1cc(C)c(-c2ccc(N3CCOC([C@H](C)O)C3)nn2)c(O)c1` (single isomer, unassigned) [Example 99], the IC50 is 0.752 µM.

Regarding `Cc1cc(C(F)(F)F)cc(O)c1-c1ccc(N2CCO[C@@H]3CN(C)C[C@@H]32)nn1` (single isomer, unassigned) [Example 334], the IC50 came to 0.073 µM.

Consider `Cc1ccc(-c2ccc(N3CCO[C@H](CO)C3)nn2)c(O)c1` [Example 92, 2-[6-[(2S)-2-(hydroxymethyl)morpholin-4-yl]pyridazin-3-yl]-5-methyl-phenol], for which the concentration for half-maximal inhibition (IC50) came to 2.2 µM.

Consider `CCc1cc(Cl)cc(O)c1-c1ccc(N2CCO[C@@H]3CCN(CC)C[C@@H]32)nn1` [Example 526, 2-[6-[(4aS,8aR)-6-ethyl-3,4a,5,7,8,8a-hexahydro-2H-pyrido[4,3-b][1,4]oxazin-4-yl]pyridazin-3-yl]-5-chloro-3-ethyl-phenol], for which the half-maximal inhibitory concentration (IC50) came to 0.001 µM.

On to `CC(=O)N1CCC2OCCN(c3ccc(-c4c(C)cc(C(F)(F)F)cc4O)nn3)C2C1` (single isomer, unassigned) [Example 336], for which the IC50 worked out at 1.16 µM.

In the case of `CN1CC[C@@H]2CCN(c3cc(C(F)F)c(-c4ccc(C(F)(F)F)cc4O)nn3)[C@@H]2C1` (single isomer, unassigned) [Example 482], the IC50 was 0.172 µM.

Take `CC(=O)N1CC[C@@H]2CCN(c3ccc(-c4c(C)cc(C(F)(F)F)cc4O)nn3)[C@@H]2C1` [Example 370, 1-[(3aS,7aS)-1-[6-[2-hydroxy-6-methyl-4-(trifluoromethyl)phenyl]pyridazin-3-yl]-3,3a,4,5,7,7a-hexahydro-2H-pyrrolo[2,3-c]pyridin-6-yl]ethanone]: the IC50 was 1.27 µM.

On to `Cc1cc(C)c(-c2ccc(N3CCC4(COCCN4C)C3)nn2)c(O)c1` (stereo not shown) [Example 444, 3,5-dimethyl-2-[6-(6-methyl-9-oxa-2,6-diazaspiro[4.5]decan-2-yl)pyridazin-3-yl]phenol], for which the IC50 turned out to be 4.06 µM.

Consider `Cc1ccc(O)c(-c2ccc(N3CCO[C@H](CO)C3)nn2)c1` [Example 102, 2-[6-[(2S)-2-(hydroxymethyl)morpholin-4-yl]pyridazin-3-yl]-4-methyl-phenol], for which the half-inhibitory concentration (IC50) is over 10 µM.

For `Cc1cc(C)c(-c2ccc(N3CCC4(CC3)CC(O)C4)nn2)c(O)c1` [Example 3, 7-[6-(2-hydroxy-4,6-dimethyl-phenyl)pyridazin-3-yl]-7-azaspiro[3.5]nonan-2-ol], the half-inhibitory concentration (IC50) was found to be 2.03 µM.

`Cc1cc(C)c(-c2ccc(N3CCO[C@@H](CC(=O)N(C)C)C3)nn2)c(O)c1` (single isomer, unassigned) [Example 151]: the IC50 came to 1.17 µM.

In the case of `Cc1ccc(-c2nnc(N3CCO[C@H]4CCN(C)C[C@H]43)cc2C(F)F)c(O)c1` [Example 306, 2-[6-[(4aR,8aS)-6-methyl-3,4a,5,7,8,8a-hexahydro-2H-pyrido[4,3-b][1,4]oxazin-4-yl]-4-(difluoromethyl)pyridazin-3-yl]-5-methyl-phenol], the IC50 stood at 1.51 µM.

Regarding `Cc1cc(C)c(-c2ccc(N3CC[C@H]3CO)nn2)c(O)c1` [Example 115, 2-[6-[(2S)-2-(hydroxymethyl)azetidin-1-yl]pyridazin-3-yl]-3,5-dimethyl-phenol], the IC50 amounted to 1.54 µM.

On to `CCc1cc(C(F)(F)F)cc(O)c1-c1ccc(N2CCO[C@@H]3CCN(C)C[C@@H]32)nn1` [Example 481, 2-[6-[(4aS,8aR)-6-methyl-3,4a,5,7,8,8a-hexahydro-2H-pyrido[4,3-b][1,4]oxazin-4-yl]pyridazin-3-yl]-3-ethyl-5-(trifluoromethyl)phenol], for which the IC50 came out at 0.002 µM.

Turning to `Cc1cc(C(F)(F)F)cc(O)c1-c1ccc(N2CC[C@@H](CO)CC2=O)nn1` [Example 292, (4R)-4-(hydroxymethyl)-1-[6-[2-hydroxy-6-methyl-4-(trifluoromethyl)phenyl]pyridazin-3-yl]piperidin-2-one], the IC50 was 0.265 µM.

For `CCN1CC2OCCN(c3ccc(-c4c(C)cc(C(F)(F)F)cc4O)nn3)C2C1` (racemic) [Example 376, 3-methyl-2-[6-[rac-(4aR,7aR)-6-ethyl-2,3,4a,5,7,7a-hexahydropyrrolo[3,4-b][1,4]oxazin-4-yl]pyridazin-3-yl]-5-(trifluoromethyl)phenol], the IC50 turned out to be 0.18 µM.

With `CC(=O)N1CC[C@H]2CCN(c3nnc(-c4c(C)cc(C)cc4O)cc3C(F)F)[C@H]2C1` (single isomer, unassigned) [Example 513], the concentration for half-maximal inhibition (IC50) was 1.77 µM.

Consider `Cc1cc(C(F)(F)F)cc(O)c1-c1ccc(N2CCC[C@H]3[C@@H]2CCCN3C)nn1` [Example 515, 2-[6-[(4aS,8aS)-5-methyl-2,3,4,4a,6,7,8,8a-octahydro-1,5-naphthyridin-1-yl]pyridazin-3-yl]-3-methyl-5-(trifluoromethyl)phenol], for which the IC50 was 0.044 µM.

On to `Cc1cc(C(F)(F)F)cc(O)c1-c1ccc(N2CCO[C@H](CC#N)C2)nn1` (single isomer, unassigned) [Example 327], for which the IC50 amounted to 0.292 µM.

In the case of `Cc1cc(C)c(-c2ccc(N3CC4(CCN4C)C3)nn2)c(O)c1` [Example 91, 3,5-dimethyl-2-[6-(1-methyl-1,6-diazaspiro[3.3]heptan-6-yl)pyridazin-3-yl]phenol], the half-maximal inhibitory concentration (IC50) stood at 4.93 µM.

As for `Cc1cc(C)c(-c2ccc(N3CCC[C@H]4CCN(C)C[C@H]43)nn2)c(O)c1` [Example 518, 2-[6-[(4aS,8aS)-7-methyl-2,3,4,4a,5,6,8,8a-octahydro-1,7-naphthyridin-1-yl]pyridazin-3-yl]-3,5-dimethyl-phenol], the IC50 is 1.22 µM.

`CCN1CC[C@H]2CCN(c3ccc(-c4c(C)cc(Cl)cc4O)nn3)[C@H]2C1` (single isomer, unassigned) [Example 496]: the IC50 came to 0.546 µM.

As to `Cc1ccc(-c2nnc(N3CC[C@@H]4CCN(C(C)C)C[C@@H]43)cc2C)c(O)c1` (racemic) [Example 528, 5-methyl-2-[4-methyl-6-[rac-(3aS,7aR)-6-isopropyl-3,3a,4,5,7,7a-hexahydro-2H-pyrrolo[2,3-c]pyridin-1-yl]pyridazin-3-yl]phenol], the concentration for half-maximal inhibition (IC50) is 0.0049 µM.

For the molecule `Cc1cc(C)c(-c2ccc(N3CC(=O)N[C@H](CO)C3)nn2)c(O)c1` (single isomer, unassigned) [Example 330], the half-maximal inhibitory concentration (IC50) was determined as 0.987 µM.

As for `Cc1cc(C(F)(F)F)cc(O)c1-c1ccc(N2CCC[C@@H]3CCN(C)C[C@@H]32)nn1` [Example 523, 2-[6-[(4aR,8aR)-7-methyl-2,3,4,4a,5,6,8,8a-octahydro-1,7-naphthyridin-1-yl]pyridazin-3-yl]-3-methyl-5-(trifluoromethyl)phenol], the IC50 was 0.681 µM.

For the molecule `Cc1cc(C(F)(F)F)cc(O)c1-c1ccc(N2CC[C@@H]3CCN(C)C[C@H]32)nn1` (racemic) [Example 364, 2-[6-[rac-(3aS,7aS)-6-methyl-3,3a,4,5,7,7a-hexahydro-2H-pyrrolo[2,3-c]pyridin-1-yl]pyridazin-3-yl]-3-methyl-5-(trifluoromethyl)phenol], the concentration for half-maximal inhibition (IC50) amounted to 0.858 µM.

Regarding `CCc1cc(C(F)(F)F)cc(O)c1-c1ccc(N2CC[C@@H]3CCN(C)C[C@@H]32)nn1` (single isomer, unassigned) [Example 492], the IC50 came out at 0.003 µM.

As for `Cc1cc(Cl)cc(O)c1-c1ccc(N2CCO[C@@H]3CCN(CCF)C[C@@H]32)nn1` [Example 522, 2-[6-[(4aS,8aR)-6-(2-fluoroethyl)-3,4a,5,7,8,8a-hexahydro-2H-pyrido[4,3-b][1,4]oxazin-4-yl]pyridazin-3-yl]-5-chloro-3-methyl-phenol], the IC50 was 0.021 µM.

On to `Cc1cc(C)c(-c2ccc(N3CC4(CCC(O)C4)C3)nn2)c(O)c1` (single isomer, unassigned) [Example 95, 2-[6-(2-hydroxy-4,6-dimethyl-phenyl)pyridazin-3-yl]-2-azaspiro[3.4]octan-6-ol], for which the IC50 stood at 2.2 µM.

As for `Cc1ccc(-c2cc(C)c(N3CCO[C@H](CO)C3)nn2)c(O)c1` [Example 110, 2-[6-[(2S)-2-(hydroxymethyl)morpholin-4-yl]-5-methyl-pyridazin-3-yl]-5-methyl-phenol], the concentration for half-maximal inhibition (IC50) came out at 3.76 µM.

On to `CC(=O)N1C[C@@H]2OCCN(c3ccc(-c4c(C)cc(C)cc4O)nn3)[C@H]2C1` (racemic) [Example 257, 1-[rac-(4aS,7aS)-4-[6-(2-hydroxy-4,6-dimethylphenyl)pyridazin-3-yl]-2,3,4a,5,7,7a-hexahydropyrrolo[3,4-b][1,4]oxazin-6-yl]ethanone], for which the IC50 came to 7.49 µM.

On to `Cc1cc(C(F)(F)F)cc(O)c1-c1ccc(N2CCOC(C(C)(C)O)C2)nn1` (single isomer, unassigned) [Example 52, 2-[6-[2-(1-hydroxy-1-methyl-ethyl)morpholin-4-yl]pyridazin-3-yl]-3-methyl-5-(trifluoromethyl)phenol], for which the concentration for half-maximal inhibition (IC50) amounted to 1.25 µM.

For `Cc1cc(C)c(O)c(-c2ccc(N3CCO[C@H](CO)C3)nn2)c1` [Example 152, 2-[6-[(2S)-2-(hydroxymethyl)morpholin-4-yl]pyridazin-3-yl]-4,6-dimethylphenol], the half-maximal inhibitory concentration (IC50) worked out at 5.98 µM.
